Test results: paper PMC6009911, “Inhibition of human cytochromes P450 2A6 and 2A13 by flavonoids, acetylenic thiophenes and sesquiterpene lactones from Pluchea indica and Vernonia cinerea” (Journal of Enzyme Inhibition and Medicinal Chemistry, 2017)
Like-named read-outs stand apart in the source and are kept apart here.

What was measured:
CYP2A13 [1] = target: T1, CYP2A13 (Homo sapiens, UniProt Q16696); assay: Inhibition of CYP2A13-mediated coumarin 7-hydroxylation, enzymatic reconstitution assay; assay type: biochemical; conditions: for Ki: coumarin 0–40 µM
T1 construct: made in house
T1 sequence (Q16696 1-494): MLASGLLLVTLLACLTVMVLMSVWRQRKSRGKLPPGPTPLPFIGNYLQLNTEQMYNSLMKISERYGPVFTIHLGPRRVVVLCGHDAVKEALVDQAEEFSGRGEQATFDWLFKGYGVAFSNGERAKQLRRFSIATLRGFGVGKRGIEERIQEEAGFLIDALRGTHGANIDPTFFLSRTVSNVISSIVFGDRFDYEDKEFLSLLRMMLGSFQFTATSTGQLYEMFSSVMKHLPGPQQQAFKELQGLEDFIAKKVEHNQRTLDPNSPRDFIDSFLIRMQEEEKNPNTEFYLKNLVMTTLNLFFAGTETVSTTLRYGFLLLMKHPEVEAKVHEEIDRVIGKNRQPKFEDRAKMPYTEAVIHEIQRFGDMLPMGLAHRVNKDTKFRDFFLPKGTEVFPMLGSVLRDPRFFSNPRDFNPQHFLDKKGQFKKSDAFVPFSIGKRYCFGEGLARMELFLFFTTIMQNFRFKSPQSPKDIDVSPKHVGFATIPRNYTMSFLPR
Experimental: (§1) Inhibitory effect of plant extracts, fractions, subfractions and constituents was determined by inhibition assay on CYP2A6- and CYP2A13-mediated coumarin 7-hydroxylation. The recombinant human CYP2A6, CYP2A13 and rat NADPH-dependent cytochrome P450 oxidoreductase (CYPOR) proteins were expressed, purified, according to the methods previously described. […] Rate of 7-hydroxycoumarin product formation was measured on spectrofluorometer (Shimadzu, Kyoto, Japan) at λex = 355 nm, λem = 460 nm. Inhibition effects were determined by incubation with extracts, fractions or purified compounds with coumarin substrate in the reaction mixture and calculated as per cent relative inhibition compared with vehicle control reaction[20] and IC50 values were calculated using GraphPad Prism 5 (GraphPad Software Inc., La Jolla, CA).
(§2) MBI requires NADPH and time to generate reactive intermediate as inhibitor and ultimately inactivates the enzyme. MBI was evaluated by pre-incubation with each test inhibitor in the reaction at different time periods (0, 10, 20 and 30 min) in the presence of NADPH for time-dependent assay, as described. The apparent inactivation constants, KI and Kinact, were obtained from double reciprocal plots of kobs versus inhibitor concentrations by linear regression analysis on GraphPad Prism 5. Methoxsalen was used as a control mechanism-based inhibitor for time- and NADPH-dependent inhibition assays.

CYP2A6 [2] = target: T2, CYP2A6 (Homo sapiens, UniProt P11509); set-up: made in house; method as in PMID 25857233; conditions: cited from earlier work
T2 sequence (P11509 1-494): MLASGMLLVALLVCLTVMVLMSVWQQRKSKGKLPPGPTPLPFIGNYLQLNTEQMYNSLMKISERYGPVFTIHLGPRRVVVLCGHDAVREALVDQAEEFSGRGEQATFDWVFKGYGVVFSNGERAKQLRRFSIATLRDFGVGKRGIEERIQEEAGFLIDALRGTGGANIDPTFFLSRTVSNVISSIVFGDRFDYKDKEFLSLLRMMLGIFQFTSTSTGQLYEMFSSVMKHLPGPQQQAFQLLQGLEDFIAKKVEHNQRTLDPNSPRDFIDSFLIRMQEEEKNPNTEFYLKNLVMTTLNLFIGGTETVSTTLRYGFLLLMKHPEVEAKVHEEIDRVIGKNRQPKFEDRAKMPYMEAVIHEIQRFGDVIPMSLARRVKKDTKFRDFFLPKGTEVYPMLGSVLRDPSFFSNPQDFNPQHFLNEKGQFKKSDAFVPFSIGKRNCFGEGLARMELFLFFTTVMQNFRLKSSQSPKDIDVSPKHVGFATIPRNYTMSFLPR

CYP2A6 [3] = target: T2, CYP2A6; set-up: made in house; conditions: ref Prasopthum et al., 2015, cited from earlier work
CYP2A13 [4] = target: T1, CYP2A13; assay: Effects of trapping agents and dialysis on inactivation of CYP2A13; assay type: biochemical; conditions: CYP2A13 inhibition reaction mixture, probe coumarin, compound 5 µM
Experimental: as §2
(§3) To explore whether inactivation of CYP2As by thiophenes 9–11 and of CYP2A13 by hirsutinolides 5-8 could be reversed, the removal of reversible inhibitory compounds by dialysis and addition of trapping agents (GSH, semicarbazide, catalase or potassium ferricyanide) in the inhibition reaction mixture were performed. […] Similarly, mechanism-based inactivation of both CYP2A6 and CYP2A13 by thiophenes 9–11 could not be reversed (Table 3).

CYP2A6 [5] = target: T2, CYP2A6; assay: Mechanism-based (time- and NADPH-dependent) inactivation of CYP2A6; assay type: biochemical; set-up: made in house; conditions: human, recombinant human CYP2A6, probe coumarin, pre-incubation 0-30 min with NADPH; for KI (inactivation): read-out: CYP2A6 KI (inactivation constant)
Experimental: as §2

CYP2A6 [6] = target: T2, CYP2A6; assay: Inhibition of CYP2A6-mediated coumarin 7-hydroxylation, enzymatic reconstitution assay; assay type: biochemical; set-up: made in house; conditions: for Ki: coumarin 0–40 µM
Experimental: as §1, §2

CYP2A13 [7] = target: T1, CYP2A13; assay: Mechanism-based (time- and NADPH-dependent) inactivation of CYP2A13; assay type: biochemical; conditions: pre-incubation 0-30 min with NADPH; for KI (inactivation): read-out: CYP2A13 KI (inactivation constant)
Experimental: as §2

CYP2A6 [8] = target: T2, CYP2A6; assay: Effects of trapping agents and dialysis on inactivation of CYP2A6; assay type: biochemical; set-up: made in house; conditions: CYP2A6 inhibition reaction mixture, probe coumarin, compound 5 µM
Experimental: as §2, §3

CYP2A13 [9] = target: T1, CYP2A13; set-up: method as in PMID 23903410, PMID 17672516; conditions: literature values; cited from earlier work
CYP2A6 [10] = target: T2, CYP2A6; conditions: read-out: inactivation kinetic values (KI) against CYP2A6; literature values; cited from earlier work
[11] = 10-min pre-incubation in the presence of NADPH, read-out: IC50 CYP2A13 Pre-incubation
[12] = coincubation, coumarin 2 µM, read-out: IC50 CYP2A13 Coincubation
[13] = 10-min pre-incubation in the presence of NADPH, read-out: IC50 CYP2A6 Pre-incubation
[14] = coincubation, coumarin 2 µM, read-out: IC50 CYP2A6 Coincubation
[15] = read-out: Per cent remaining activity, 70 μM K3Fe(CN)6
[16] = read-out: Per cent remaining activity, 2 mM GSH
[17] = read-out: Per cent remaining activity, 5 mM semicarbazide
[18] = read-out: Per cent remaining activity, 2000 U catalase
[19] = read-out: Per cent remaining activity, Dialysis (+) NADPH
[20] = read-out: Per cent remaining activity, Dialysis (−) NADPH
[21] = read-out: Per cent remaining activity, Pre-incubation

O=c1cc(-c2ccc(O)c(O)c2)oc2cc(O)cc(O)c12 [Luteolin 2, luteolin]
IC50 (CYP2A13 [1]; [11]): 170 ± 10 nM | IC50 (CYP2A13 [1]; [12]): 180 ± 20 nM | Ki (CYP2A13 [1]): 70 ± 10 nM | inhibition of CYP2A6-mediated nicotine metabolism (CYP2A6 [2]): showed inhibition | IC50 (CYP2A6 [3]; [13]): 1260 ± 70 nM | IC50 (CYP2A6 [3]; [14]): 1380 ± 180 nM | Ki (CYP2A6 [3]; coumarin 0–40 µM): 800 ± 60 nM | CYP2A6 Mode of inhibition (CYP2A6 [3]): Competitive^b

CC#CC#Cc1ccc(C#CC(O)COC(C)=O)s1 (stereo not drawn) [Thiophene 9, 2-(penta-1,3-diyn-1-yl)-5–(4-acetoxy-3-hydroxybuta-1-yn-1-yl) thiophene]
activity at 5 µM (CYP2A13 [4]; [15]): 24.9 ± 3.95% | activity at 5 µM (CYP2A13 [4]; [16]): 23.2 ± 3.38% | activity at 5 µM (CYP2A13 [4]; [17]): 23.2 ± 3.38% | activity at 5 µM (CYP2A13 [4]; [18]): 22.1 ± 2.39% | activity at 5 µM (CYP2A13 [4]; [19]): 20.9 ± 0.24% | activity at 5 µM (CYP2A13 [4]; [20]): 85.3 ± 4.98% | activity at 5 µM (CYP2A13 [4]; [21]): 29 ± 4.57% | kinact (CYP2A6 [5]): 0.00167 s⁻¹ | KI (inactivation) (CYP2A6 [5]): 880 ± 90 nM | CYP2A13 Mode of inhibition (CYP2A13 [1]): Mixed type | IC50 (CYP2A13 [1]; [11]): 2290 ± 340 nM | IC50 (CYP2A13 [1]; [12]): 6180 ± 280 nM | Ki (CYP2A13 [1]): 2960 ± 100 nM | CYP2A6 Mode of inhibition (CYP2A6 [6]): Mixed type | IC50 (CYP2A6 [6]; [13]): 2.12 ± 0.19 µM | IC50 (CYP2A6 [6]; [14]): 6.43 ± 1.29 µM | Ki (CYP2A6 [6]): 3230 ± 430 nM | kinact (CYP2A13 [7]): 0.00133 s⁻¹ | KI (inactivation) (CYP2A13 [7]): 970 ± 40 nM | activity at 5 µM (CYP2A6 [8]; [15]): 22.7 ± 1.58% | activity at 5 µM (CYP2A6 [8]; [16]): 21.6 ± 1.97% | activity at 5 µM (CYP2A6 [8]; [17]): 26.8 ± 2.39% | activity at 5 µM (CYP2A6 [8]; [18]): 26.9 ± 3.07% | activity at 5 µM (CYP2A6 [8]; [19]): 20.1 ± 5.21% | activity at 5 µM (CYP2A6 [8]; [20]): 89.3 ± 7% | activity at 5 µM (CYP2A6 [8]; [21]): 30.1 ± 3.7%

CC#Cc1ccc(C#CC#CC(O)COC(C)=O)s1 (stereo not drawn) [Thiophene 10, 2-(prop-1-inyl)-5–(6-acetoxy-5-hydroxyhexa-1,3-diinyl) thiophene]
activity at 5 µM (CYP2A13 [4]; [15]): 26.9 ± 1.75% | activity at 5 µM (CYP2A13 [4]; [16]): 27 ± 8.11% | activity at 5 µM (CYP2A13 [4]; [17]): 27 ± 8.11% | activity at 5 µM (CYP2A13 [4]; [18]): 22.2 ± 2.38% | activity at 5 µM (CYP2A13 [4]; [19]): 21.4 ± 3.95% | activity at 5 µM (CYP2A13 [4]; [20]): 93 ± 6.58% | activity at 5 µM (CYP2A13 [4]; [21]): 28.9 ± 1.25% | kinact (CYP2A6 [5]): 0.00183 s⁻¹ | KI (inactivation) (CYP2A6 [5]): 1010 ± 70 nM | CYP2A13 Mode of inhibition (CYP2A13 [1]): Mixed type | IC50 (CYP2A13 [1]; [11]): 1150 ± 880 nM | IC50 (CYP2A13 [1]; [12]): 2940 ± 10 nM | Ki (CYP2A13 [1]): 1120 ± 90 nM | CYP2A6 Mode of inhibition (CYP2A6 [6]): Mixed type | IC50 (CYP2A6 [6]; [13]): 2.97 ± 0.01 µM | IC50 (CYP2A6 [6]; [14]): 4.44 ± 0.14 µM | Ki (CYP2A6 [6]): 2070 ± 230 nM | kinact (CYP2A13 [7]): 0.001 s⁻¹ | KI (inactivation) (CYP2A13 [7]): 860 ± 90 nM | activity at 5 µM (CYP2A6 [8]; [15]): 19.2 ± 1.83% | activity at 5 µM (CYP2A6 [8]; [16]): 28.5 ± 1.72% | activity at 5 µM (CYP2A6 [8]; [17]): 21.1 ± 3.31% | activity at 5 µM (CYP2A6 [8]; [18]): 24.1 ± 4.49% | activity at 5 µM (CYP2A6 [8]; [19]): 23.7 ± 2.06% | activity at 5 µM (CYP2A6 [8]; [20]): 87.5 ± 9.25% | activity at 5 µM (CYP2A6 [8]; [21]): 35.2 ± 3.22%

S=C=NCCCCCCc1ccccc1 [phenylhexyl isothiocyanate]
KI values against CYP2A13 (CYP2A13 [9]): 1.1 µM

S=C=NCCCc1ccccc1 [phenylpropyl isothiocyanate]
KI values against CYP2A13 (CYP2A13 [9]): 0.14 µM

C/C=C(\C)CC/C=C(\C)C(=O)OCC(C)(C)CC1=C(O)C(=O)c2ccccc2C1=O [rhinacanthin-C, reference compound]
KI (inactivation) (CYP2A6 [10]): 970 nM | KI values against CYP2A13 (CYP2A13 [9]): 1.68 µM

CC(C)(C)N=C=S [tert-butyl isothiocyanate]
KI values against CYP2A13 (CYP2A13 [9]): 4.3 µM

rhinacanthin-A [reference compound]
KI (inactivation) (CYP2A6 [10]): 690 nM | KI values against CYP2A13 (CYP2A13 [9]): 0.42 µM

rhinacanthin-B [reference compound]
KI (inactivation) (CYP2A6 [10]): 440 nM | KI values against CYP2A13 (CYP2A13 [9]): 0.16 µM
